The values below come from ChEMBL document CHEMBL1201862, “PubChem BioAssay data set” (2004).

Among the test systems are KM12; ACHN; MCF7; HCC 2998; SNB-19; HOP-92; UO-31; T47D; NCI/ADR-RES; NCI-H460; SF-295; SK-MEL-5; TK-10; NCI-H23; EKVX; RPMI-8226; UACC-257; A549.
Common to all, as to assay: growth of human tumour cells (NCI), 48 h

SMILES strings stand for the structures.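 1) Cells in 96-well plates. 2) Compound, 48 h, 5 concentrations. 3) Linear interpolation between surrounding doses. 4) Unreached endpoint = highest concentration. GI50 is the concentration that inhibits growth by half.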 Calls of active or inactive are those of the source. No stated cut-off is given here; in the data, active = GI50 up to about 1.1 µM and inactive = higher.

Consider `CN(C)CC1CCC/C(=C\c2ccc(OC(=O)/C=C/c3ccccc3)cc2)C1=O` (configuration not stated), for which the GI50 with KM12 is 1.28 µM (inactive); with ACHN, 2.51 µM (inactive); with MCF7, 0.208 µM (active); in the assay with HCC 2998, 10.5 µM (inactive); in the assay on SNB-19 it was 5.35 µM (inactive); in the assay with HOP-92, 2.22 µM (inactive). Besides, the GI50 in the assay on UO-31 is 1.83 µM (inactive); in the assay on T47D, 1.06 µM (active); in the assay with NCI/ADR-RES, 1.94 µM (inactive); with NCI-H460, 4.88 µM (inactive); in the assay on SF-295, 3.56 µM (inactive); with SK-MEL-5, 3.64 µM (inactive). In addition, the GI50 is 1.73 µM (inactive) with TK-10; 1.91 µM (inactive) in the assay with NCI-H23; 2.18 µM (inactive) with EKVX; 0.656 µM (active) with RPMI-8226; 3.48 µM (inactive) in the assay with UACC-257; 2.75 µM (inactive) in the assay on A549.
With `Cc1sc(NC=C2C(=O)CC(C)(C)CC2=O)nc1-c1ccccc1`, the GI50 in the assay on KM12, in the assay on ACHN, in the assay on MCF7, with HCC 2998, in the assay with SNB-19 and in the assay with HOP-92 was > 100 µM (inactive) each time. Also, the GI50 with UO-31, in the assay on T47D, with NCI/ADR-RES, in the assay with NCI-H460, with SF-295 and in the assay on SK-MEL-5 was > 100 µM (inactive) throughout. In addition, the GI50 with TK-10, in the assay with NCI-H23, in the assay with EKVX, in the assay on RPMI-8226, with UACC-257 and in the assay on A549 was > 100 µM (inactive) each time.
With `CNC(=S)/C(=N\Nc1[nH]cnc1C(N)=O)C(N)=S`, the GI50 in the assay on KM12 is 4.09 µM (inactive); in the assay on ACHN it was 5.32 µM (inactive); in the assay on MCF7 it was 16.5 µM (inactive); in the assay on HCC 2998 it was 1.99 µM (inactive); with SNB-19 it was 45.3 µM (inactive); in the assay on HOP-92 it was 3 µM (inactive). Also, the GI50 is 1.61 µM (inactive) in the assay with UO-31; 11.6 µM (inactive) in the assay with T47D; 1.36 µM (inactive) with NCI/ADR-RES; 5.31 µM (inactive) with NCI-H460; 3.36 µM (inactive) in the assay on SF-295; 11.5 µM (inactive) in the assay with SK-MEL-5. The GI50 in the assay with TK-10 was 1.24 µM (inactive); in the assay on NCI-H23, 17.3 µM (inactive); in the assay on EKVX it was 22.3 µM (inactive); with RPMI-8226, 1.14 µM (inactive); in the assay on UACC-257 it was 9.62 µM (inactive); in the assay with A549, > 84.1 µM (inactive).
On to `Cc1nc2cccc([N+](=O)[O-])c2c(NCCCN(C)C)c1C`, for which the GI50 in the assay with KM12 was 34.6 µM (inactive); in the assay on ACHN, 97.3 µM (inactive); in the assay on MCF7, 23 µM (inactive); with HCC 2998 it was 21.8 µM (inactive); in the assay with SNB-19, > 100 µM (inactive); in the assay on HOP-92, > 100 µM (inactive). In addition, the GI50 in the assay on UO-31 was > 100 µM (inactive); with T47D it was > 100 µM (inactive); with NCI/ADR-RES, > 100 µM (inactive); with NCI-H460, 24 µM (inactive); in the assay on SF-295, 36.6 µM (inactive); with SK-MEL-5, 35.6 µM (inactive). In addition, the GI50 in the assay on TK-10 was > 40.9 µM (inactive); with NCI-H23, 28.1 µM (inactive); with EKVX, > 31.6 µM (inactive); with RPMI-8226 it was 34.8 µM (inactive); in the assay on UACC-257 it was 23 µM (inactive); in the assay with A549, 60.4 µM (inactive).
Turning to `CO[C@]12CC(=O)C3(C(C[C@H]4CC5CC[C@H]6C[C@@H](OC(C)=O)CC[C@]6(OC(C)=O)C5C[C@@]43C)C1)C1C[C@H]3[C@@H]4CC[C@H]5C[C@@H](OC(C)=O)CC[C@]5(OC(C)=O)[C@H]4CC[C@]3(C)C12` (some centres not stated), the GI50 in the assay with KM12 was 46.8 µM (inactive); with ACHN, > 100 µM (inactive); with MCF7, 80.5 µM (inactive); with HCC 2998 it was 59.2 µM (inactive); in the assay with SNB-19 it was 82.8 µM (inactive); with HOP-92 it was > 100 µM (inactive). Besides, the GI50 with UO-31 is > 100 µM (inactive); in the assay with T47D it was 37 µM (inactive); with NCI/ADR-RES, 43.6 µM (inactive); with NCI-H460, 66.5 µM (inactive); with SF-295, 61.5 µM (inactive); in the assay on SK-MEL-5 it was 24.4 µM (inactive). Besides, the GI50 was > 100 µM (inactive) with TK-10; 83.4 µM (inactive) in the assay on NCI-H23; > 100 µM (inactive) in the assay with EKVX; 37.2 µM (inactive) in the assay with RPMI-8226; > 100 µM (inactive) in the assay with UACC-257; 61.2 µM (inactive) with A549.
On to `C=CC(C)(O)CCC1C(=C)C(O)CC2C(C)(C)CCCC12C` (configuration not stated), for which the GI50 with KM12 was 21.1 µM (inactive); in the assay on ACHN, 26 µM (inactive); with MCF7, 23.2 µM (inactive); in the assay on HCC 2998, 18.6 µM (inactive); with SNB-19, 18.1 µM (inactive); in the assay on HOP-92, 17.3 µM (inactive). In addition, the GI50 in the assay with UO-31 is 15.2 µM (inactive); in the assay with T47D, 23.5 µM (inactive); in the assay on NCI/ADR-RES, 18.5 µM (inactive); in the assay on NCI-H460 it was 16.9 µM (inactive); in the assay with SF-295, 21.1 µM (inactive); in the assay on SK-MEL-5 it was 16 µM (inactive). Further, the GI50 is 20 µM (inactive) in the assay with TK-10; 18.7 µM (inactive) in the assay with NCI-H23; 19.1 µM (inactive) in the assay with EKVX; 20 µM (inactive) in the assay on RPMI-8226; 19 µM (inactive) with UACC-257; 22.1 µM (inactive) in the assay on A549.
For the compound `CCOC(=O)c1sc2c(c1OC(=O)c1cc(OC)c(OC)c(OC)c1)c(=O)n(-c1ccccc1)c(=S)n2-c1ccccc1`, the GI50 in the assay with KM12 is > 100 µM (inactive); with ACHN it was > 100 µM (inactive); with MCF7, > 100 µM (inactive); with HCC 2998, 81.3 µM (inactive); in the assay on SNB-19 it was > 100 µM (inactive); with HOP-92 it was 22.2 µM (inactive). The GI50 is 41.6 µM (inactive) with T47D; 75.3 µM (inactive) in the assay with NCI/ADR-RES; 51.5 µM (inactive) in the assay on NCI-H460; > 100 µM (inactive) with SF-295; > 100 µM (inactive) with SK-MEL-5; > 100 µM (inactive) in the assay with TK-10. The GI50 in the assay on NCI-H23 is 53.1 µM (inactive); with EKVX, 45.5 µM (inactive); in the assay on RPMI-8226, 93.1 µM (inactive); in the assay on UACC-257, > 100 µM (inactive); in the assay with A549, > 100 µM (inactive).
On to `CCOC(=O)C(SCCO)C(C(=O)OCC)n1cc(C)c(=O)[nH]c1=O` (configuration not stated), for which the GI50 with KM12 was 25.8 µM (inactive); in the assay on ACHN it was 8.75 µM (inactive); with MCF7, 11.6 µM (inactive); with HCC 2998, 27.4 µM (inactive); in the assay on SNB-19, 62.1 µM (inactive); with HOP-92 it was 15.6 µM (inactive). Besides, the GI50 in the assay on UO-31 was 22.9 µM (inactive); in the assay on T47D it was 19.6 µM (inactive); in the assay on NCI/ADR-RES it was 24.8 µM (inactive); in the assay on NCI-H460 it was 21.5 µM (inactive); with SF-295, > 79.4 µM (inactive); with SK-MEL-5 it was 23.2 µM (inactive). The GI50 is 24.9 µM (inactive) with TK-10; 21.2 µM (inactive) in the assay on NCI-H23; 30.7 µM (inactive) in the assay on EKVX; 7.89 µM (inactive) with RPMI-8226; 28.2 µM (inactive) with UACC-257; 52.8 µM (inactive) with A549.
In the case of `CN(C)/C=C/c1ccncc1`, the GI50 in the assay with KM12, in the assay on ACHN, in the assay on MCF7, in the assay on HCC 2998, in the assay with SNB-19 and in the assay with HOP-92 was > 100 µM (inactive) in each case. Moreover, the GI50 with UO-31, in the assay with T47D, with NCI/ADR-RES, in the assay on NCI-H460, in the assay on SF-295 and with SK-MEL-5 was > 100 µM (inactive) throughout. Further, the GI50 in the assay with TK-10, with NCI-H23, with EKVX, in the assay on RPMI-8226, in the assay on UACC-257 and in the assay on A549 was > 100 µM (inactive) each time.
Consider `CN1CCc2c3n(c4cc(Br)ccc24)[C@H](O)CCCC31` (some centres not stated), for which the GI50 is 2.38 µM (inactive) with KM12; > 10 µM (inactive) in the assay with ACHN; 1.78 µM (inactive) in the assay with MCF7; 1.75 µM (inactive) in the assay with HCC 2998; > 10 µM (inactive) with SNB-19; 3.61 µM (inactive) with HOP-92. The GI50 in the assay on UO-31 is > 7.52 µM (inactive); in the assay on T47D it was > 10 µM (inactive); in the assay with NCI/ADR-RES, 4.97 µM (inactive); in the assay on NCI-H460 it was 1.6 µM (inactive); in the assay on SF-295, 1.77 µM (inactive); in the assay on SK-MEL-5, 3.18 µM (inactive). In addition, the GI50 in the assay on TK-10 was > 7.36 µM (inactive); in the assay on NCI-H23, > 10 µM (inactive); with EKVX it was > 10 µM (inactive); in the assay on RPMI-8226, 2.4 µM (inactive); in the assay on UACC-257, 2.25 µM (inactive); in the assay with A549 it was > 5.86 µM (inactive).
As to `N#Cc1c(N)nc2[nH]nc(N)c2c1-c1ccccc1`, the GI50 in the assay on KM12 is 6.4 µM (inactive); in the assay with ACHN, 4.63 µM (inactive); in the assay with MCF7, 4.59 µM (inactive); with HCC 2998, 16.5 µM (inactive); in the assay on SNB-19, 16.1 µM (inactive); in the assay with HOP-92, 2.56 µM (inactive). Further, the GI50 with UO-31 was 3.56 µM (inactive); in the assay with T47D, 0.452 µM (active); in the assay with NCI/ADR-RES, 15 µM (inactive); with NCI-H460 it was 4.28 µM (inactive); with SF-295, 6.04 µM (inactive); in the assay on SK-MEL-5, 8.24 µM (inactive). For the same compound, the GI50 with TK-10 is 5.6 µM (inactive); with NCI-H23, 6.49 µM (inactive); in the assay with EKVX it was 7.74 µM (inactive); with RPMI-8226, > 24.3 µM (inactive); with UACC-257, 21.1 µM (inactive); in the assay with A549, 6.58 µM (inactive).
